Laboratory results published in US8404665B2, “In vivo use of glutathione S-transferase activated nitric oxide donors” (University of Utah Research Foundation, priority 2002, dated 2013).

Assays:
[1] = NO release by chemiluminescence detection, GSH without enzyme; assay type: physicochemical
Description: Measurement of NO Release. Chemiluminescence detection and quantification of NO evolving from the reactions of JS-K were conducted using an NO-specific Thermal Energy Analyzer (Model 502A, Thermedics, Analytical Instrument Division, Waltham, Mass.) essentially as previously described (Keefer, L. K. et al. (1996) Methods Enzymol. 268: 281-293). Briefly, pH 7.4 phosphate buffer containing 1 mM GSH was sparged with inert gas until a steady detector response was established. Where indicated, GSTs were added to a final concentration of 1.67 ug of enzyme/ml. […] The resulting curve was integrated to quantify the amount of NO released/mole of compound.
These reactions led to NO generation as predicted as indicated by purging gases from the solution as they formed into an NO-specific chemiluminescence detector. […] In the absence of enzyme, NO release began immediately upon adding GSH, increasing in rate until plateauing at 8 min and integrating to a total of 1.1 mol of NO per mol of JS-K within 43 min of mixing.

DLD-1 = DLD-1 solid tumor cell growth; assay type: cell-based
Description: Cell Lines and Culture Conditions. HL-60, DLD1, and U937 cells were obtained from ATCC (Rockville, Md.). Meth A cells were from Dr. Wolfram Samlowski (University of Utah, Salt Lake City, Utah). The PPC-1 cell line was provided by Dr. Graeme Bolger (University of Alabama, Birmingham, Ala.). For the cell growth and apoptosis experiments, cells were cultured at a density of 150,000 cells/ml in RPMI-1640 with 10% fetal bovine serum at 37° C. in a 5% CO2 humidified atmosphere. Agents were added at the indicated concentrations 24 h after culture initiation. At the indicated time intervals, cells were harvested and washed twice in phosphate buffered saline (PBS) prior to processing for analysis of growth, differentiation, and apoptosis.
Cell Growth, Differentiation and Apoptosis Assays. The number of viable cells was determined using the MTT assay according to the manufacturer's protocol (Promega, Madison, Wis.) or using a Coulter counter. […] The assay is useful in calorimetric quantitation of cell viability and proliferation. In contrast, cell differentiation was evaluated using Wright and Non-Specific Esterase (NSE) staining of cells collected on microscope slides by cytospin as previously described (Magrinat, G. et al. (1992) Blood 80: 1880-1884). […]

[2] = Reactivity of JS-K with GSH (HPLC-MS, pseudo-first order kinetics); assay type: physicochemical; conditions: 37° C.
Description: Chromatography and Mass Spectrometry. High Performance Liquid Chromatography (HPLC) separations were carried out with a Phenomenex Luna 5 u C18(2) column (Torrance, Calif.) using a gradient of acetonitrile:water (each containing 0.1% formic acid) at a flow rate of 1 ml/min (% acetonitrile: 25% for 0-5 min followed by a linear program to 70% at 15 min).
HPLC-Mass Spectrometry (MS) studies were performed on an Agilent Capillary Series 1100 LC/MSD Ion Trap mass spectrometer with electrospray ionization in the positive ion mode (CITY, STATE). Separations were effected as above, except that the flow rate was 15 ul/min and the gradient was 10% acetonitrile for 0-5 min followed by a linear program to 70% at 15 min.
The diazeniumdiolate ion appears to resemble chloride as a leaving group in SNAr reactions (Saavedra, J. E. et al. (2001) J. Org. Chem. 66: 3090-3098). Since 1-chloro-2,4-dinitrobenzene is believed to react with GSH, it was anticipated that JS-K would be similarly converted to DNP-SG. This was indicated by HPLC-MS where there appeared to be an 85% conversion of JS-K to DNP-SG within a 30-min incubation period at 37° C. in pH 7.4 phosphate buffer. Similar results appeared in a RPMI-1640 cell culture medium. Pseudo-first order kinetic plots for the reaction of GSH with JS-K in 0.1 M phosphate buffer (pH 7.4) were obtained with GSH (1-5 mM) in large excess of the substrate. Excellent first-order behavior was observed over several half-lives, and measured first-order rate constants appeared to show a linear dependence on [GSH]. The slope and y-intercept of the line yielded values for the second-order [k2=(1.02±0.04) M^−1 s^−1] and first order [k1=(4±12)×10^−5 s^−1] rate constants for the reactions of JS-K with GSH and water, respectively, at 37° C. in 0.1 M phosphate buffer, pH 7.4. The ultraviolet spectral changes accompanying the reaction in a second cell culture medium (Dulbecco's Modified Eagle's Medium) appeared to confirm the above stated kinetic rate constants.

HL-60 cells = experiment: Apoptosis in HL-60 cells by DNA laddering; assay type: cell-based, human; conditions: 1 μM, twenty-four hours post-addition
Description: Cell Growth, Differentiation and Apoptosis Assays. The number of viable cells was determined using the MTT assay according to the manufacturer's protocol (Promega, Madison, Wis.) or using a Coulter counter. Briefly, a MTT assay is an analytical technique that uses the dye dimethylthiazolyl-diphenyltetrazolium (MTT) which turns from yellow to brownish-purple as it is reduced in the mitochondria of living cells. The assay is useful in calorimetric quantitation of cell viability and proliferation. In contrast, cell differentiation was evaluated using Wright and Non-Specific Esterase (NSE) staining of cells collected on microscope slides by cytospin as previously described (Magrinat, G. et al. (1992) Blood 80: 1880-1884). Apoptosis was assayed by flow cytometry and by determining DNA fragmentation using agarose gel electrophoresis as previously described (Shami, P. J. et al. (1998) Leukemia 12: 1461-1466). For the flow cytometry assay, we used the propidium iodide staining method of Nicoletti et al. (Nicoletti, I. et al. (1991) J. Immunol. Methods 139: 271-279).
Twenty-four hours post-addition, apoptosis induction was assayed by DNA laddering.

Structure (SMILES): CCOC(=O)N1CCN(/[N+]([O-])=N/Oc2ccc([N+](=O)[O-])cc2[N+](=O)[O-])CC1 [JS-K, O^2-(2,4-dinitrophenyl) 1-[(4-ethoxycarbonyl)piperazin-1-yl]diazen-1-ium-1,2-diolate]
- time at which NO release rate plateaued ([1]; 1 mM GSH, no enzyme): 8 min
- total NO released ([1]; 1 mM GSH, pH 7.4 phosphate, 0.67 uM JS-K, no enzyme, within 43 min of mixing): 1.1 mol of NO per mol of JS-K
- NO detection without GSH ([1]; pH 7.4 phosphate/0.67 uM JS-K solution): did not appear to be detected until 1 mM GSH was added
- IC50 relative to leukemia lines (DLD-1): an order of magnitude greater than those for the two leukemia lines
- first order rate constant k1, reaction with water (y-intercept) ([2]; 0.1 M phosphate buffer, pH 7.4): (4±12)×10^−5 s^−1
- second-order rate constant k2, reaction with GSH ([2]; 0.1 M phosphate buffer, pH 7.4): 1.02 ± 0.04 M⁻¹ s⁻¹
- conversion of JS-K to DNP-SG ([2]; within 30-min incubation, pH 7.4 phosphate buffer): 85%
- apoptosis induction by DNA laddering (HL-60 cells): potent inducer of apoptosis in leukemia cells
